Assay results from ChEMBL document CHEMBL3039007, “Structure-based identification of OATP1B1/3 inhibitors” (Mol Pharmacol, 2013).
Where “and” joins values, the source holds several entries; their conditions need not be identical. Equal entries are not always repeated.

Tests used:
[1] = target: T1, Solute carrier organic anion transporter family member 1B3 (Homo sapiens, UniProt Q9NPD5); details: chinese hamster, cho, 10 µM
T1 sequence (Q9NPD5 whole entry): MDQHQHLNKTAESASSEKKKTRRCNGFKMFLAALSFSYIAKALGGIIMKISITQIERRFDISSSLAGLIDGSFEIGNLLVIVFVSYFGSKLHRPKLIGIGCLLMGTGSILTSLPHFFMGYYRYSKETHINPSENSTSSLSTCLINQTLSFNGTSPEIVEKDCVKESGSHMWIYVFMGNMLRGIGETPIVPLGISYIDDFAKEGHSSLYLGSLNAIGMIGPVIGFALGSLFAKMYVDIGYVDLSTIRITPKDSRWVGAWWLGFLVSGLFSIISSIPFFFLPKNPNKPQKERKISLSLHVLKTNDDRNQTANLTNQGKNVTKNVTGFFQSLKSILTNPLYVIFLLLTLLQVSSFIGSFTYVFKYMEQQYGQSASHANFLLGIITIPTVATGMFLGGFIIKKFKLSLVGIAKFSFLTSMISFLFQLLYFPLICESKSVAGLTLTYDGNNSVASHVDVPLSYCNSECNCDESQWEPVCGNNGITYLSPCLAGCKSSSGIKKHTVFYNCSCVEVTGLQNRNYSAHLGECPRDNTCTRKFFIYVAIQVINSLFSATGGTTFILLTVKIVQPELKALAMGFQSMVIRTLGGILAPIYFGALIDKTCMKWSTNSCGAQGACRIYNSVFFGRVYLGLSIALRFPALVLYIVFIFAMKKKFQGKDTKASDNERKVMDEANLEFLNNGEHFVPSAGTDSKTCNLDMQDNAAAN

[2] = target: T2, Solute carrier organic anion transporter family member 1B1 (Homo sapiens, UniProt Q9Y6L6); details: chinese hamster, cho, 10 µM
T2 sequence (Q9Y6L6 whole entry): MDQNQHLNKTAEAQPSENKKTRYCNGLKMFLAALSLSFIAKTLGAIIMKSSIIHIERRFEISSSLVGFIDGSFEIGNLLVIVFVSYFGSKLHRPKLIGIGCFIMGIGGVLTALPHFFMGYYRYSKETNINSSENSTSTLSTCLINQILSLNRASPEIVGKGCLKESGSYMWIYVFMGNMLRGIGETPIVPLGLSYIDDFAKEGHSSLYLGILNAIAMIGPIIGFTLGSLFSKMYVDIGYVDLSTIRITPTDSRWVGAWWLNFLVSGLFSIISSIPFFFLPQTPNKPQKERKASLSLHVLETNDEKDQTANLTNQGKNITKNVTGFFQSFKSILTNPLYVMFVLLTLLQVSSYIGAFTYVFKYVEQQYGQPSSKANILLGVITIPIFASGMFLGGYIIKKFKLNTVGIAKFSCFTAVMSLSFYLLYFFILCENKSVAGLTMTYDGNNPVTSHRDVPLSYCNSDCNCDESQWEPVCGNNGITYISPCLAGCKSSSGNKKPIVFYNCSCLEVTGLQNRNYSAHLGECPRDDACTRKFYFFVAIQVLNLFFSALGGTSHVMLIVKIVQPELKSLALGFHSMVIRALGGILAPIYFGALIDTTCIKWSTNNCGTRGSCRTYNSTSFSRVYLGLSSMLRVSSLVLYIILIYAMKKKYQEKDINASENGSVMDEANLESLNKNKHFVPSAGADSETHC

CC(C(=O)O)c1ccc(N2Cc3ccccc3C2=O)cc1 (configuration not stated) [INDOPROFEN]
residual activity [1]: 96.18%
residual activity [2]: 97.2%

OC[C@H]1O[C@@H](n2cnc3c(O)ncnc32)[C@H](O)[C@@H]1O [INOSINE]
residual activity [1]: 107.3%
residual activity [2]: 110.7%

O=C(CCCCC(=O)Nc1c(I)cc(I)c(C(=O)O)c1I)Nc1c(I)cc(I)c(C(=O)O)c1I [IODIPAMIDE]
residual activity [1]: 60.87%
residual activity [2]: 90.55%

Oc1c(I)cc(I)c2cccnc12 [IODOQUINOL]
residual activity [1]: 87.46%
residual activity [2]: 86.7%

CCC(Cc1c(I)cc(I)c(N)c1I)C(=O)O (configuration not stated) [IOPANOIC ACID]
residual activity [1]: 59.57%
residual activity [2]: 31.11%

CC(C)Oc1ccc2c(=O)c(-c3ccccc3)coc2c1 [IPRIFLAVONE]
residual activity [1]: 84.86%
residual activity [2]: 137.7%

CC(C)NNC(=O)c1ccncc1.O=S(=O)(O)O [IPRONIAZID SULFATE]
residual activity [1]: 101.8%
residual activity [2]: 122.7%

CCCCC1=NC2(CCCC2)C(=O)N1Cc1ccc(-c2ccccc2-c2nnn[nH]2)cc1 [IRBESARTAN]
residual activity [1]: 47.18%
residual activity [2]: 76.05%

COc1c(O)cc(O)cc1O [IRETOL]
residual activity [1]: 111.8%
residual activity [2]: 89.16%

COc1cc(-c2coc3cc(O[C@@H]4O[C@H](CO)[C@@H](O)[C@H](O)[C@H]4O)c(OC)c(O)c3c2=O)cc(O)c1OC [IRIDIN]
residual activity [1]: 90.79%
residual activity [2]: 114.5%

COc1cc(-c2coc3cc(OC)c(OC)c(OC)c3c2=O)cc(OC)c1OC [IRIGENIN TRIMETHYL ETHER]
residual activity [1]: 91.27%
residual activity [2]: 216.2%

COc1cc(-c2coc3cc(OCc4ccccc4)c(OC)c(O)c3c2=O)cc(O)c1OC [IRIGENIN, 7-BENZYL ETHER]
residual activity [1]: 36.98%
residual activity [2]: 60.69%

COc1cc(-c2coc3cc(OCc4ccccc4)c(OC)c(O)c3c2=O)cc(OCc2ccccc2)c1OC [IRIGENIN, DIBENZYL ETHER]
residual activity [1]: 93.33%
residual activity [2]: 92.09%

O=c1c(-c2cc(O)c(O)c(O)c2)coc2cc(O)c(O)c(O)c12 [IRIGENOL]
residual activity [1]: 92.26%
residual activity [2]: 71.59%

CC(=O)Oc1cc(-c2coc3cc(OC(C)=O)c(OC(C)=O)c(OC(C)=O)c3c2=O)cc(OC(C)=O)c1OC(C)=O [IRIGINOL HEXAACEATATE]
residual activity [1]: 94.12%
residual activity [2]: 102.1%

COc1cc2occc2c2oc(=O)ccc12 [ISOBERGAPTENE]
residual activity [1]: 113.9%
residual activity [2]: 127.3%

CC(C)Cn1c(=O)n(C)c(=O)c2[nH]cnc21 [ISOBUTYLMETHYLXANTHINE]
residual activity [1]: 85.37% and 74.61%
residual activity [2]: 102.2% and 126.3%

COc1ccc2c(c1O)-c1c(OC)c(OC)cc3c1[C@H](C2)N(C)CC3 [ISOCORYDINE]
residual activity [1]: 102.1%
residual activity [2]: 115.2%

Cc1cc(=O)c2c(O)cc(O)c(C)c2o1 [ISOEUGENITOL]
residual activity [1]: 101%
residual activity [2]: 129.2%

COc1ccc(-c2cc(=O)c3c(O)cc(O)c(-c4cc(-c5cc(=O)c6c(O)cc(O)cc6o5)ccc4OC)c3o2)cc1 [ISOGINKGETIN]
residual activity [1]: 63.51%
residual activity [2]: 36.16%

Cl.O=C(O)C1=CCNCC1 [ISOGUVACINE HYDROCHLORIDE]
residual activity [1]: 103.5%
residual activity [2]: 113.5%

C=C1CCC2C(CC2(C)C)C(=O)CCC1O (configuration not stated) [ISOKOBUSONE]
residual activity [1]: 82.48%
residual activity [2]: 93.72%

O=C(/C=C/c1ccc(O)cc1)c1ccc(O)cc1O [ISOLIQUIRITIGENIN]
residual activity [1]: 119.2%
residual activity [2]: 210.9%

NNC(=O)c1ccncc1 [ISONIAZID]
residual activity [1]: 98.94%
residual activity [2]: 88.4%

COc1cc(O)ccc1C(C)=O [ISOPEONOL]
residual activity [1]: 84.87%
residual activity [2]: 60.41%

COc1c2ccoc2c(OC)c2oc(=O)ccc12 [ISOPIMPINELLIN]
residual activity [1]: 29.02%
residual activity [2]: 84.51%

CC(C)[N+](C)(CCC(C(N)=O)(c1ccccc1)c1ccccc1)C(C)C.[I-] [ISOPROPAMIDE IODIDE]
residual activity [1]: 91.67%
residual activity [2]: 83.43%

CC(C)NCC(O)c1ccc(O)c(O)c1.Cl (configuration not stated) [ISOPROTERENOL HYDROCHLORIDE]
residual activity [1]: 88.72%
residual activity [2]: 105.2%

COC(=O)[C@H]1[C@H]2C[C@H]3c4[nH]c5cc(OC)ccc5c4CCN3C[C@H]2C[C@@H](OC(=O)c2cc(OC)c(OC)c(OC)c2)[C@@H]1OC [ISORESERPINE]
residual activity [1]: 42.22%
residual activity [2]: 38.5%

COc1cc2c(cc1OC)[C@@H]1C(=O)c3ccc4oc(C(C)C)cc4c3O[C@@H]1CO2 [ISOROTENONE]
residual activity [1]: 87.44%
residual activity [2]: 78.62%

C/C=C/c1ccc2c(c1)OCO2 [ISOSAFROLE]
residual activity [1]: 79.83%
residual activity [2]: 75.01%

O=[N+]([O-])O[C@H]1CO[C@H]2[C@@H]1OC[C@H]2O[N+](=O)[O-] [ISOSORBIDE DINITRATE]
residual activity [1]: 114.2%
residual activity [2]: 86.27%

COc1ccc(-c2coc3c(OC)c(OC)cc(OC)c3c2=O)cc1 [ISOTECTORIGENIN TRIMETHYL ETHER]
residual activity [1]: 118.2%
residual activity [2]: 133.5%

COc1ccc(-c2coc3c(OC)c(OC)cc(O)c3c2=O)cc1 [ISOTECTORIGENIN, 7-METHYL ETHER]
residual activity [1]: 105%
residual activity [2]: 135.9%

CC1=C(/C=C/C(C)=C/C=C/C(C)=C\C(=O)O)C(C)(C)CCC1 [ISOTRETINOIN]
residual activity [1]: 51.47%
residual activity [2]: 32.24%

Cc1cc(NC(=O)C2=C(O)c3ccccc3S(=O)(=O)N2C)no1 [ISOXICAM]
residual activity [1]: 86.6%
residual activity [2]: 111.2%

CC(COc1ccccc1)NC(C)C(O)c1ccc(O)cc1.Cl (configuration not stated) [ISOXSUPRINE HYDROCHLORIDE]
residual activity [1]: 77.52%
residual activity [2]: 38.44%

C/C=C(/C)C(=O)O[C@@H]1Cc2c(ccc3ccc(=O)oc23)OC1(C)C [JATAMANSIN]
residual activity [1]: 153%
residual activity [2]: 165.1%

O=C(O)/C=C/C=C/c1ccccc1 [JUAREZIC ACID]
residual activity [1]: 88.74%
residual activity [2]: 102.3%

O=C1C=CC(=O)c2c(O)cccc21 [JUGLONE]
residual activity [1]: 93.79%
residual activity [2]: 66.93%

C=C(C)[C@H]1CN[C@H](C(=O)O)[C@H]1CC(=O)O [KAINIC ACID]
residual activity [1]: 103.1%
residual activity [2]: 106.3%

C[C@@H]1O[C@@H](O[C@H]2[C@H](O[C@H]3CC[C@@]4(C)[C@@H](CC[C@]5(C)[C@@H]4CC=C4[C@@H]6CC(C)(C)CC[C@]6(C(=O)O[C@@H]6O[C@H](CO[C@@H]7O[C@H](CO)[C@@H](O[C@@H]8O[C@@H](C)[C@H](O)[C@@H](O)[C@H]8O)[C@H](O)[C@H]7O)[C@@H](O)[C@H](O)[C@H]6O)CC[C@]45C)[C@]3(C)CO)OC[C@H](O)[C@@H]2O)[C@H](O)[C@H](O)[C@H]1O [KALOPANAXSAPONIN B]
residual activity [1]: 109.8%
residual activity [2]: 127.7%

COc1c(-c2ccccc2)oc2c(ccc3occc32)c1=O [KARANJIN]
residual activity [1]: 124.7%
residual activity [2]: 50.39%

Oc1cc(O)c2c(c1)O[C@H](c1cc(O)c(O)c(O)c1)[C@H](O)[C@H]2c1c(O)cc(O)c2c1O[C@H](c1cc(O)c(O)c(O)c1)[C@H](O)[C@H]2c1c(O)cc(O)c2c1O[C@H](c1cc(O)c(O)c(O)c1)[C@H](O)C2 [KATACINE]
residual activity [1]: 99.79%
residual activity [2]: 133.4%

NC(CO)(CO)CO.O=C(c1ccccc1)c1ccc2n1CCC2C(=O)O (configuration not stated) [KETOROLAC TROMETHAMINE]
residual activity [1]: 87.08%
residual activity [2]: 196.1%

CN1CCC(=C2c3ccccc3CC(=O)c3sccc32)CC1.O=C(O)/C=C/C(=O)O [KETOTIFEN FUMARATE]
residual activity [1]: 89.36%
residual activity [2]: 94.79%
